These results are taken from patent US20120197004A1, “NOVEL ANTI-MICROBIAL PEPTIDOMIMETIC COMPOUNDS AND METHODS TO CALCULATE ANTI-MICROBIAL ACTIVITY” (priority 2006, published 2012).

Where a SMILES comes first, the peptide text is derived from it. [ ]: non-standard residue; d: D form. Oic = O=C(O)[C@@H]1C[C@@H]2CCCC[C@@H]2N1; Tic = O=C(O)[C@@H]1Cc2ccccc2CN1

The test concerns Mycobacterium ranae (ATCC 110). The following applies: ATCC 110.
For `CC(=O)NCC(=O)N[C@@H](Cc1ccccc1)C(=O)N1Cc2ccccc2C[C@H]1C(=O)N1[C@H](C(=O)NCC(=O)N[C@H](CCCCN)C(=O)N2Cc3ccccc3C[C@H]2C(=O)N2[C@H](C(=O)NCC(=O)N[C@@H](Cc3ccccc3)C(=O)N3Cc4ccccc4C[C@H]3C(=O)N3[C@H](C(=O)NCC(=O)N[C@H](CCCCN)C(=O)N4Cc5ccccc5C[C@H]4C(=O)N[C@@H](CCCCN)C(=O)N[C@@H](CCCCN)C(=O)N[C@@H](CCCCN)C(=O)N[C@@H](CCCCN)C(N)=O)C[C@@H]4CCCC[C@@H]43)C[C@@H]3CCCC[C@@H]32)C[C@@H]2CCCC[C@@H]21` [FKAB-1G3, Ac-GF-Tic-Oic-G-dK-Tic-Oic-GF-Tic-Oic-G-dK-Tic-KKKK-CONH2] (Ac-GF[Tic][Oic]G[dK][Tic][Oic]GF[Tic][Oic]G[dK][Tic]KKKK-NH2), the “Minimum Inhibitory Concentration Mycobacterium ranae” value was found to be 10 µM.

Turning to `CC(=O)N[C@@H](CCCCN)C(=O)N[C@@H](CCCCN)C(=O)N[C@@H](CCCCN)C(=O)N[C@@H](CCCCN)C(=O)NCC(=O)N[C@@H](Cc1ccccc1)C(=O)N1Cc2ccccc2C[C@H]1C(=O)N1[C@H](C(=O)NCC(=O)N[C@@H](CCCCN)C(=O)N2Cc3ccccc3C[C@H]2C(=O)N2[C@H](C(=O)NCC(=O)N[C@@H](Cc3ccccc3)C(=O)N3Cc4ccccc4C[C@H]3C(=O)N3[C@H](C(=O)NCC(=O)N[C@@H](CCCCN)C(=O)N4Cc5ccccc5C[C@H]4C(N)=O)C[C@@H]4CCCC[C@@H]43)C[C@@H]3CCCC[C@@H]32)C[C@@H]2CCCC[C@@H]21` [FBAB-1Gq, Ac-KKKK-GF-Tic-Oic-GK-Tic-Oic-GF-Tic-Oic-GK-Tic-CONH2] (Ac-KKKKGF[Tic][Oic]GK[Tic][Oic]GF[Tic][Oic]GK[Tic]-NH2), the “Minimum Inhibitory Concentration Mycobacterium ranae” value was 3 µM.

As for `CC(=O)NCC(=O)N[C@@H](Cc1ccccc1)C(=O)N1Cc2ccccc2C[C@H]1C(=O)N1Cc2ccccc2C[C@H]1C(=O)NCC(=O)N[C@@H](CCCCN)C(=O)N1Cc2ccccc2C[C@H]1C(=O)N1Cc2ccccc2C[C@H]1C(=O)NCC(=O)N[C@@H](Cc1ccccc1)C(=O)N1Cc2ccccc2C[C@H]1C(=O)N1Cc2ccccc2C[C@H]1C(=O)NCC(=O)N[C@@H](CCCCN)C(=O)N1Cc2ccccc2C[C@H]1C(=O)N[C@@H](CCCCN)C(=O)N[C@@H](CCCCN)C(=O)N[C@@H](CCCCN)C(=O)N[C@@H](CCCCN)C(N)=O` [FKAB-1Gg2, Ac-GF-Tic-Tic-GK-Tic-Tic-GF-Tic-Tic-GK-Tic-KKKK-CONH2] (Ac-GF[Tic][Tic]GK[Tic][Tic]GF[Tic][Tic]GK[Tic]KKKK-NH2), the “Minimum Inhibitory Concentration Mycobacterium ranae” value worked out at 10 µM.

Turning to `CC(=O)NCC(=O)N[C@H](Cc1ccccc1)C(=O)N1Cc2ccccc2C[C@H]1C(=O)N1[C@H](C(=O)NCC(=O)N[C@@H](CCCCN)C(=O)N2Cc3ccccc3C[C@H]2C(=O)N2[C@H](C(=O)NCC(=O)N[C@H](Cc3ccccc3)C(=O)N3Cc4ccccc4C[C@H]3C(=O)N3[C@H](C(=O)NCC(=O)N[C@@H](CCCCN)C(=O)N4Cc5ccccc5C[C@H]4C(=O)N[C@@H](CCCCN)C(=O)N[C@@H](CCCCN)C(=O)N[C@@H](CCCCN)C(=O)N[C@@H](CCCCN)C(N)=O)C[C@@H]4CCCC[C@@H]43)C[C@@H]3CCCC[C@@H]32)C[C@@H]2CCCC[C@@H]21` [FKAB-1G2, Ac-G-dF-Tic-Oic-GK-Tic-Oic-G dF-Tic-Oic-GK-Tic-KKKK-CONH2] (Ac-G[dF][Tic][Oic]GK[Tic][Oic]G[dF][Tic][Oic]GK[Tic]KKKK-NH2), the “Minimum Inhibitory Concentration Mycobacterium ranae” value came to 10 µM.
